Assay results as given in PubChem BioAssay AID1918944 (Molecular Pharmacology Branch, DTP, NCI, 2023).
“And” between values parts separate entries of the source, which are not always exact repeats. Identical values can stand only once.

System: 786-0 complex spheroid viability
Experiment: Anticancer human tumor 786-0 cell line growth inhibition;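 note: spheroids exposed to agents for seven days before readout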
Settings: for viability, T/C: stronger effect = lower value
Source text: Multicellular complex tumor spheroid response to LSD1 Inhibitor Iadademstat in combination with a variety of drugs and investigational agents in selected tumor cell lines
The current study was undertaken to assess response to LSD1 inhibitors in combination with standard-of-care drugs and investigational agents in solid tumor complex spheroid models as well as in the K-562 leukemia. Complex spheroids include a stromal component modeled by human endothelial cells (HUVEC) and fibroblasts modeled by human mesenchymal stem cells (MSCs). The concentration ranges selected for each drug and investigational agent were based upon clinically achievable concentrations if the clinical Cmax of the agent was known.
Compounds. The drugs and investigational agents used in this study are listed on Table 1. All of the agents used, including staurosporine (NSC755774) and gemcitabine (NSC613327), were obtained from the Developmental Therapeutics Program, NCI. FDA-approved anticancer drugs are available from the NCI at http://dtp.nci.nih.gov/branches/dscb/oncology_drugset_explanation.html. Drugs and investigational agents were >95% pure by proton nuclear magnetic resonance (NMR) and liquid chromatography/mass spectrometry (LC/MS). Stock solutions were prepared at 400x in DMSO, stored at -70 degrees C, and diluted in fresh medium prior to their use. The final concentration of DMSO in cell culture wells never exceeded 0.25% (v/v). The FDA-approved anticancer drug set is available from the Developmental Therapeutics Program at https://dtp.cancer.gov/organization/dscb/obtaining/available_plates.htm. All drugs and investigational agents were tested over a range starting from a high concentration at or near the clinical Cmax and decreasing in half-log increments. If the clinical Cmax for an agent had not been determined, the highest concentration tested was 10 microM.
Cell Lines. The patient-derived cancer cell (PDC) lines: 292921-168-R-J2-PDC, K24384-001-R-PDC, and 521955-158-R2-J5-PDC pancreatic carcinomas, 556581-035-R-J1 ovarian carcinoma, 324938-238-R-J1-PDC, 855422-203-R-J1-PDC and 883617-216-R-J1-PDC urothelial bladder carcinomas, 743489-274-T-PDC renal cell carcinoma, 138582-R-J1 Merkel cell tumor, K60290-347-R-J1 and K57222-313-R-J1-PDC glioblastomas, 653999-131-R-J2-PDC, LG0703-F948-PDC, and 349418-098-R-PDC non-small cell lung carcinomas, 885512-296-R-J2-PDC, 171881-019-R-J1-PDC breast carcinomas and 186277-243-T-J2-PDC and 233499-124-R-J2-PDC colon carcinomas were obtained from the NCI Patient-Derived Models Repository (PDMR, https://pdmr.cancer.gov). The established cell lines NCI/ADR-RES (RRID:CVCL_14520 and OVCAR-5 (RRID:CVCL_1628) ovarian carcinomas, 786-O (RRID:CVCL_1051) and A498 (RRID:CVCL_A498) renal cell carcinoma, NCI-H211 (ATCC, cat. CRL-5824; RRID:CVCL_1529), NCI-H196 (ATCC, cat. CRL-5823, RRID:CVCL_1509), SW 1271 (ATCC, cat. CRL-2177, RRID:CVCL_1716) and NCI-H1876 (ATCC, cat. CRL-5902, RRID:CVCL_1503) small cell lung carcinomas, MDA-MB-231 (RRID:CVCL_0062) and MDA-MB-468 (RRID:CVCL_0419)breast carcinomas (10-12). Pooled donor human umbilical vein endothelial cells (HUVEC, Lonza, cat. CC-2519) and human mesenchymal stem cells (hMSC, Lonza, cat. PT-2501) were purchased from Lonza (Walkersville, MD).
Cell Culture. All cells were maintained in an incubator at 37 degrees C and 5% CO2 with 95% humidity. The PDC lines were cultured according to standard operating procedures established by the NCI PDMR (https://pdmr.cancer.gov). Briefly all PDCs were thawed and cultured in Matrigel-coated flasks prepared with a working solution of 1X Ham's F-12 nutrient mix, without supplementation (Invitrogen, Waltham, MA, cat. 11765054), 100 U/mL penicillin-streptomycin (Invitrogen, cat. 15140122), and 2.5% Matrigel (Corning Inc., Corning, NY, cat. 354248) for the first three passages. […]

CCc1c2c(nc3ccc(O)cc13)-c1cc3c(c(=O)n1C2)COC(=O)[C@]3(O)CC + NC1CCC(NC2CC2c2ccccc2)CC1
IC50 (curve of first compound, second compound 0.1 µM): < 0.949 nM
IC50 (curve of first compound, second compound 0.316 µM): < 0.949 nM
IC50 (curve of first compound, second compound 1 µM): < 0.949 nM
IC50 (curve of first compound, second compound 3.16 µM): < 0.949 nM
IC50 (curve of first compound, second compound 10 µM): < 0.949 nM
viability, T/C (second compound 0.1 µM, first compound 0.000949 µM): 5.59%
viability, T/C (second compound 0.1 µM, first compound 0.003 µM): 3.78%
viability, T/C (second compound 0.1 µM, first compound 0.00949 µM): 4.66%
viability, T/C (second compound 0.1 µM, first compound 0.03 µM): 5.87%
viability, T/C (second compound 0.1 µM, first compound 0.0949 µM): 7.32%
viability, T/C (second compound 0.1 µM, first compound 0.3 µM): 5.08%
viability, T/C (second compound 0.316 µM, first compound 0.000949 µM): 4.71%
viability, T/C (second compound 0.316 µM, first compound 0.003 µM): 5.02%
viability, T/C (second compound 0.316 µM, first compound 0.00949 µM): 5.44%
viability, T/C (second compound 0.316 µM, first compound 0.03 µM): 5.35%
viability, T/C (second compound 0.316 µM, first compound 0.0949 µM): 6.11%
viability, T/C (second compound 0.316 µM, first compound 0.3 µM): 6.29%
viability, T/C (second compound 1 µM, first compound 0.000949 µM): 4.87%
viability, T/C (second compound 1 µM, first compound 0.003 µM): 4.67%
viability, T/C (second compound 1 µM, first compound 0.00949 µM): 4.31%
viability, T/C (second compound 1 µM, first compound 0.03 µM): 6.32%
viability, T/C (second compound 1 µM, first compound 0.0949 µM): 7.36%
viability, T/C (second compound 1 µM, first compound 0.3 µM): 5.93%
viability, T/C (second compound 3.16 µM, first compound 0.000949 µM): 4.72%
viability, T/C (second compound 3.16 µM, first compound 0.003 µM): 4.8%
viability, T/C (second compound 3.16 µM, first compound 0.00949 µM): 5.76%
viability, T/C (second compound 3.16 µM, first compound 0.03 µM): 6.79%
viability, T/C (second compound 3.16 µM, first compound 0.0949 µM): 7.9%
viability, T/C (second compound 3.16 µM, first compound 0.3 µM): 6.54%
viability, T/C (second compound 10 µM, first compound 0.000949 µM): 3.83%
viability, T/C (second compound 10 µM, first compound 0.003 µM): 4.29%
viability, T/C (second compound 10 µM, first compound 0.00949 µM): 6.51%
viability, T/C (second compound 10 µM, first compound 0.03 µM): 9.43%
viability, T/C (second compound 10 µM, first compound 0.0949 µM): 10.1%
viability, T/C (second compound 10 µM, first compound 0.3 µM): 7.07%

CC1(C)CCC(CN2CCN(c3ccc(C(=O)NS(=O)(=O)c4ccc(NCC5CCOCC5)c([N+](=O)[O-])c4)c(Oc4cnc5[nH]ccc5c4)c3)CC2)=C(c2ccc(Cl)cc2)C1
viability, T/C (compound 0.0316 µM): 102% and 98%
viability, T/C (compound 0.1 µM): 106% and 105%
viability, T/C (compound 0.316 µM): 96.9% and 110%
viability, T/C (compound 1 µM): 97% and 99.1%
viability, T/C (compound 3.16 µM): 90.1% and 93.2%
viability, T/C (compound 10 µM): 66.7% and 79.4%
IC50 (curve of compound): > 10000 nM
